Experimental data published in patent US11298409B2, “Mutant huntingtin-mediated protein dysfunction” (UNIVERSITY OF PITTSBURGH—OF THE COMMONWEALTH SYSTEM OF …, priority 2014, dated 2022).
Like-named read-outs stand apart in the source and are kept apart here. One block for each compound: values may come before it. No end group written: not given here.

Legend:
[1] = tested on: pOTC import into mitochondria isolated from striatal cells; assay: pOTC import assay with mitochondria from striatal cells plus uncoupler; format: biochemical; settings: added to mitochondria before starting the import reaction
Description: The assay was performed as previously described (52,53).

[2] = tested on: mitochondrial protein import in primary cortical neurons; settings: 10 μM, 2 h
Description: Neurons obtained from each embryo were cultured separately on poly-1-lysine-coated plates and subjected to in vitro pOTC import assay on DIV 7-8.
Pre-ornithine transcarbamylase (pOTC) cDNA in pGEM-3Zf(+)-pOTC plasmid, which was kindly provided by M. Yano (Kumamoto University, Kumamoto, Japan), was transcribed and translated in vitro using the TNT-coupled reticulocyte lysate system (Promega) in the presence of 1-[^35S]methionine (PerkinElmer). Following translation, [35 S]methionine-labeled pOTC was incubated with isolated mitochondria at 25° C. for the indicated times, and mitochondria containing imported OTC were collected by centrifugation (9,000 g, 10 min) and subjected to SDS-PAGE. The radioactive polypeptides on the gel were visualized by fluorography with Amplify (GE Healthcare) followed by exposure to X-ray film. Cleaved mature OTC (mOTC), which represents the completion of import into the mitochondrial matrix and migrates faster than pOTC on SDS-PAGE, was quantified by ImageJ (NIH). The data are presented as the percentage of mOTC compared to input (total [^35S]pOTC amount added to each reaction) and scaled to imported mOTC in control mitochondria after the maximum reaction time (set equal to 1) unless otherwise specified. […]

[3] = tested on: WT primary cortical neurons; settings: 10 μM
Description: Primary cortical neurons were prepared from R6/2 and WT littermate embryos at E15.5. Neurons prepared from each embryo were plated into separate dishes. […] Primary cortical neurons were incubated with the indicated concentrations of H2O2 for 1 day, and neuronal death was analyzed by lactate dehydrogenase (LDH) assay (11c). Data (11b, 11c) are presented as mean+s.e.m.

[4] = tested on: primary cortical and striatal neurons; assay: cell death assay by nuclear morphology in Tom40 RNAi-transfected primary neurons; format: cell-based, mouse; settings: 20 μM
Description: Mouse primary cortical and striatal neurons from embryonic day (E) 15.5 Swiss Webster mouse fetuses were cultured in plating medium (minimal essential medium (MEM), 10% FBS, 0.45% glucose, 1 mM sodium pyruvate, 2 mM glutamine and penicillin/streptomycin) for 3 h and then maintained in serum-free Neurobasal medium containing B27 supplement (Life Technologies), 0.5 mM glutamine and 25 μM glutamate for the first 3 d in a humidified incubator (37° C. in 5% CO2). Half of the medium was replaced with Neurobasal medium with B27 and 0.5 mM glutamine every 3 d. […] Viral copy number was adjusted for transduction of neurons on the basis of titer measured using the Lenti-X qRT-PCR titration kit (Clontech). […]
Primary neurons infected with Tim23 shRNA or control luciferase shRNA lentivirus at DIV 5 were fixed 7 d after infection. Nuclei were stained with Hoechst 33342, and neurons were assessed in a blinded fashion for cell death by scoring condensed or fragmented nuclei. Primary neurons plated in a 24-well plate were transfected with Tom40 shRNA or control pBSU6 plasmid along with β-gal expression plasmid at DIV 5, fixed 3 d after transfection and subjected to indirect immunofluorescence with anti-β-gal antibody and nuclear DAPI staining. β-gal-positive neurons were assessed for cell death as described above. […]

[5] = tested on: TIM23 complex (Tim17a, Tim23 and Tim50); assay: GST pull-down with mitochondria isolated from ST14A striatal cells and mouse brain; format: binding, rat
Description: Extracts were spun at 14,000 r.p.m. at 4° C., and clarified supernatants were incubated with glutathione 4B Sepharose beads (GE Healthcare) at 4° C. overnight. The glutathione beads were then washed extensively with ice-cold TNE buffer, and bound proteins were subjected to SDS-PAGE followed by immunoblotting analysis. For the samples subjected to mass spectrometry, glutathione bead-bound proteins from equal amounts (600 μg) of mitochondria were further washed with high stringency RIPA buffer following TNE buffer wash to decrease nonspecific interaction. Proteins were then eluted from the glutathione beads in SDS sample buffer, separated by SDS-PAGE and stained with Coomassie. Proteins in the gel were digested with trypsin and analyzed by mass spectrometry (LC-MS/MS) at the Taplin Biological Mass Spectrometry Facility (Harvard Medical School, Boston, Mass.).
We therefore performed GST pull-down assays using purified GST-Httex1-97Q, GST-Httex1-97Q-ΔN17, which lacks the N17 sequence, and GST-N17 with mitochondria isolated from ST14A striatal cells and mouse brain.

[6] = target: T1, Tim23 (Mus musculus, UniProt Q9WTQ8); assay: GST pull down assay with purified Tim proteins; format: binding
T1 construct: GST (N, cleaved yes); made in house; host or cells: E. coli BL21star (DE3)
T1 sequence (Q9WTQ8 1-209): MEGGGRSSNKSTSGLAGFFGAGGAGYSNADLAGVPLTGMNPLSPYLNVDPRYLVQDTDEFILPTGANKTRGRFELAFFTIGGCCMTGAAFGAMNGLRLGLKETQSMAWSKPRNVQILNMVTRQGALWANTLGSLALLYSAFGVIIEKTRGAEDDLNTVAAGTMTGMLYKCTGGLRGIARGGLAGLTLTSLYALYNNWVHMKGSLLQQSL
Description: Mouse Timm23, Timm50, Timm17A, and Timm17B cDNA were subcloned into the GST-Httex1 vector and transformed into BL21star (DE3) cells (Life Technologies). GST-Tim23, GST-Tim50, GST-Tim17A, and GST-Tim17B fusion proteins were purified from the cells by using glutathione 4B Sepharose beads (GE Healthcare) to bind the fusion proteins. To purify Tim proteins from GST, the GST fusion protein-bead complexes were digested with thrombin protease (GE Healthcare) at 25° C. overnight, and eluted with PBS. The eluted proteins were concentrated in PBS using AmiconUltra-10K centrifugal filters (Millipore).
GST-Htt exon 1 proteins and GST removed Tim proteins were incubated with glutathione 4B Sepharose beads (GE Healthcare) at 4° C. overnight. The glutathione beads were then washed extensively with ice-cold PBS, and bound proteins were subjected to SDS-PAGE followed by immunoblotting analysis.

Compound: O=[N+]([O-])c1ccc(O)c([N+](=O)[O-])c1 [2,4-dinitrophenol]
effect on pOTC import [1]: blocks import

Compound: OO [hydrogen peroxide]
effect on mitochondrial protein import vs vehicle ([2]; R6/2 neurons): significantly decreased import
effect on mitochondrial protein import vs vehicle ([2]; WT neurons): little to no effect
effect on survival [3]: does not affect

Compound: CC(C)[C@H](NC(=O)c1ccc2ccccc2n1)C(=O)N[C@@H](CC(=O)O)C(=O)COc1c(F)cccc1F [qVD-OPh]
effect on Tom40 RNAi-induced neuronal death [4]: partially but significantly inhibited

binding to Tim23 in pull down [6]: did not bind
Compound: GST-N17: GST tagged N terminal 17 amino acids of Huntingtin protein (MATLEKLMKAFESLKSF; also: GST tagged, side not given here)
interaction with Tim17a, Tim23 and Tim50 in pull-down [5]: little, if any, interaction
